Among the data in ChEMBL document CHEMBL5584311, “Antiviral Chlorinated Drimane Meroterpenoids from the Fungus Talaromyces pinophilus LD-7 and Their Biosynthetic Pathway” (J Nat Prod, 2024) are IC50 and CC50 values, retold here.

For assay [1], the system named is Vesicular stomatitis virus. The assay can be described thus: Antiviral activity against Vesicular stomatitis virus infected in African green monkey Vero cells assessed as inhibition of cytopathic effect pre-infected with cells for 12 hrs followed by viral infection and measured after 24 hrs by fluorescence based CPE reduction method. It is filed as functional, organism-based.

The subject of a further assay is HL-60. In words: Cytotoxicity against human HL-60 cells. In kind it is functional.
The subject of the next assay is K562. In words: Cytotoxicity against human K562 cells. In kind it is functional.
The next assay deals with MGC-803. In words: Cytotoxicity against human MGC-803 cells. In kind it is functional.
In a further assay the test system is Bel-7402. In words: Cytotoxicity against human Bel-7402 cells. In kind it is functional.
The subject of the next assay is SH-SY5Y. The assay can be described thus: Cytotoxicity against human SH-SY5Y cells. It is filed as functional.
For the next assay, the system named is HCT-116. In words: Cytotoxicity against human HCT-116 cells. It is filed as functional.
The test system of the next assay is MDA-MB-231. In words: Cytotoxicity against human MDA-MB-231 cells. In kind it is functional.
For another assay, the system named is A549. The assay can be described thus: Cytotoxicity against human A549 cells. It is filed as functional.
Assay [2] in a line: Cytotoxicity against human MCF7/ADM cells. In kind it is functional.
Assay [3] can be described thus: Cytotoxicity against human HO-8910 cells. In kind it is functional.
In a further assay the test system is U-87 MG. The assay can be described thus: Cytotoxicity against human U87 cells. In kind it is functional, U-87MG ATCC.
In a further assay the test system is NCI-H1975. In words: Cytotoxicity against human NCI-H1975 cells. In kind it is functional.
Another assay concerns Hepatitis C virus. The assay can be described thus: Antiviral activity against HCV infected in human Huh7.5 cells stably expressing firefly luciferase by microplate luminometer based analysis. In kind it is functional, organism-based, Hepacivirus hominis.

SMILES strings stand for the structures.

Consider `CC(C)[C@]12CC[C@@]3(C)[C@H](CC[C@@]4(C)Oc5cc(O)c6c(c5C[C@@]43O1)C[C@@H](C)OC6=O)O2`, for which, in [1], the IC50 (as a rule, the concentration that inhibits the measured activity by half) is 0.91 µM.
Same read-out and setting: for `CC(=O)O[C@@H]1c2c3c(cc(O)c2C(=O)O[C@@H]1C)O[C@]1(C)CC[C@@H]2O[C@@]4(C(C)C)CC[C@]2(C)[C@]1(C3)O4` the value was 0.49 µM; for `C[C@@H]1Cc2c3c(cc(O)c2C(=O)O1)O[C@]1(C)CC[C@H]2C(C)(C)C(=O)CC[C@]2(C)[C@H]1C3`, 0.023 µM.
Regarding `CC(C)[C@@]12CC[C@]3(C)[C@]4(Cc5c(cc(O)c6c5[C@@H](O)[C@@H](C)OC6=O)O[C@]4(C)CC[C@]3(O)O1)O2`, the IC50 in assay [1] amounted to 0.43 µM.
On the same count and under the same terms, for `CC(C)C1=CC[C@@]2(C)C(=O)CC[C@@]3(C)Oc4cc(O)c5c(c4C[C@@]32O1)[C@@H](O)[C@@H](C)OC5=O` the value was 0.97 µM; for `CC(=O)O[C@@H]1c2c3c(c(Cl)c(O)c2C(=O)O[C@@H]1C)O[C@]1(C)CC[C@]2(O)O[C@@]4(C(C)C)CC[C@]2(C)[C@]1(C3)O4`, 0.26 µM.
Still for that read-out and setting: next, `C[C@@H]1Cc2c3c(c(Cl)c(O)c2C(=O)O1)O[C@]1(C)CC[C@H]2C(C)(C)C(=O)CC[C@]2(C)[C@@]1(O)C3`: 0.015 µM.
As for `CC(=O)O[C@@H]1c2c3c(c(Cl)c(O)c2C(=O)O[C@@H]1C)O[C@]1(C)CCC(=O)[C@]2(C)CC=C(C(C)C)O[C@]12C3`, in assay [1], the IC50 was found to be 0.28 µM.
Take `CC(C)[C@@]12CC[C@]3(C)[C@]4(Cc5c6c(c(O)c(Cl)c5O[C@]4(C)CC[C@]3(O)O1)C(=O)O[C@H](C)C6)O2`: the concentration for half-maximal inhibition (IC50) in assay [1] turned out to be 0.18 µM.
For `C[C@@H]1Cc2c3c(cc(O)c2C(=O)O1)O[C@]1(C)CCC[C@](C)([C@H]2C[C@@H](O)C2(C)C)[C@H]1C3`, the half-maximal cytotoxic concentration (CC50) in the assay on HL-60, with K562, with MGC-803, in the assay on Bel-7402, in the assay on SH-SY5Y and with HCT-116 was 3.35 µM in each case. For the same molecule, the CC50 (in the assay on MDA-MB-231; in the assay with A549; in assay [2]; in assay [3]; in the assay with U-87 MG; with NCI-H1975) was 3.35 µM throughout.
With `C[C@@H]1Cc2c3c(c(Cl)c(O)c2C(=O)O1)O[C@]1(C)CC[C@]2(O)C(C)(C)[C@@]4(O)CC[C@]2(C)[C@]1(C3)O4`, in assay [1], the IC50 worked out at 0.083 µM.
The same measure, in the same setting: for `CC(=O)O[C@@H]1c2c3c(cc(O)c2C(=O)O[C@@H]1C)O[C@]1(C)CC[C@]2(O)C(C)(C)[C@@]4(O)CC[C@]2(C)[C@]1(C3)O4` the value was 0.19 µM.
The same measure, in the same setting: next, `CC(=O)O[C@@H]1c2c3c(cc(O)c2C(=O)O[C@@H]1C)O[C@]1(C)CC[C@]2(O)O[C@@]4(C(C)C)CC[C@]2(C)[C@]1(C3)O4`: 0.57 µM.
Take `CC(C)[C@]12CC[C@@]3(C)[C@H](CC[C@@]4(C)Oc5c(Cl)c(O)c6c(c5C[C@@]43O1)C[C@@H](C)OC6=O)O2`: the half-maximal inhibitory concentration (IC50) in assay [1] amounted to 0.018 µM.
As for `CC1=C(O)C(=O)[C@@]23C(C)CC[C@@H]2[C@H](C)CO[C@]32Oc3cc(O)cc(CO)c3C=C12` (stereo not given in full), the half-maximal inhibitory concentration (IC50) with Hepatitis C virus was 9.5 µM.
`CC(=O)O[C@@H]1c2c3c(c(Cl)c(O)c2C(=O)O[C@@H]1C)O[C@]1(C)CC[C@@H]2O[C@@]4(C(C)C)CC[C@]2(C)[C@]1(C3)O4`: in [1], the concentration for half-maximal inhibition (IC50) stood at 0.082 µM.
Same read-out and setting: next, `C[C@@H]1Cc2c3c(cc(O)c2C(=O)O1)O[C@]1(C)CC[C@]2(O)C(C)(C)[C@@]4(O)CC[C@]2(C)[C@]1(C3)O4`: 0.13 µM; `NC(=O)c1ncn([C@@H]2O[C@H](CO)[C@@H](O)[C@H]2O)n1` [RIBAVIRIN]: 0.046 µM.
In the case of `CC(=O)O[C@@H]1c2c3c(cc(O)c2C(=O)O[C@@H]1C)O[C@]1(C)CCC(=O)[C@]2(C)CC=C(C(C)C)O[C@]12C3`, in assay [1], the IC50 was determined as 0.32 µM.
